Reference: patent publication US7557134B2, “N-(heteroaryl)-1H-indole-2-carboxamide derivatives and their use as vanilloid TRPV1 receptor ligands” (Sanofi-Aventis, priority 2005, dated 2009)

Legend:
TRPV1 receptors = target: T1, TRPV1 receptors (Mus musculus, UniProt Q704Y3); experiment: Test of mouse corneal irritation (capsaicin ocular instillation); type: in vivo; conditions: 1 mg/kg po, pretreatment time t = 1 h, n = 8, 2 μl of 160 μM capsaicin
T1 construct: from tissue; host or cells: living mouse, cornea (capsaicin ocular instillation)
Procedure: Test of Mouse Corneal Irritation
The irritant nature of capsaicin is readily assessed on the cornea since this organ is one of the organs most densely innervated with C fibres. In this context, from preliminary experiments, the application of a very small amount of capsaicin (2 μl at a concentration of 160 μM) to the surface of the cornea of an animal leads to a certain number of stereotypic behavioral traits associated with irritation, which are easy to detect. Among these, the following are noted: blinking of the eye, rubbing of the instilled eye with the ipsilateral front paw, rubbing of the face with both front paws, scratching of the ipsilateral face with the hind paw. […] This aspect is moreover also normal. […]
In practice, the test product is administered orally and, with a delay (pretreatment time: t) that depends on the pharmacokinetic data, the animal receives an ocular instillation of 2 μl of a 160 μM capsaicin solution prepared as indicated above. During a 2-minute observation following the instillation, the number of times the instilled eye is rubbed with the ipsilateral front paw is recorded.
For a given animal, the percentage of protection is calculated as follows: P=100−((number of scratching actions observed/mean number of scratching actions for the group treated with the solvent)×100) […]

TRPV1 receptor = target: T2, TRPV1 receptor (Rattus norvegicus, UniProt O35433); experiment: Test of inhibition of the current induced with capsaicin on rat DRGs (whole-cell patch-clamp); type: cell-based; conditions: capsaicin response 300 nM, rat DRG neurons
T2 construct: The neurons of the DRG naturally express the TRPV1 receptor; endogenous in cells; host or cells: primary culture of newborn rat dorsal root ganglion neurons
Procedure: Test of Inhibition of the Current Induced with Capsaicin on rat DRGs
• Primary culture of rat dorsal root ganglion (DRG) cells:
The neurons of the DRG naturally express the TRPV1 receptor.
The primary cultures of newborn rat DRGs are prepared using 1-day-old rats. Briefly, after dissection, the ganglions are trypsinized and the cells dissociated by mechanical trituration. The cells are resuspended in an Eagle basal culture medium containing 10% fetal calf serum, 25 mM KCl, 2 mM glutamine, 100 μg/ml gentamicin and 50 ng/ml of NGF, and then deposited on glass slides coated with laminin (0.25×10^6 cells per slide), which are then placed in Corning 12-well dishes. The cells are incubated at 37° C. in a humidified atmosphere containing 5% CO2 and 95% air. Cytosine β-D-arabinoside (1 μM) is added 48 hours after culturing, to prevent the growth of non-neuronal cells. The slides are transferred into experimental chambers for the patch-clamp studies after 7-10 days of culturing.
The measuring chambers (volume 800 μl) containing the cell preparation are placed on the platform of an inverted microscope (Olympus IMT2) equipped with Hoffman optics (Modulation Contrast, New York) and observed at a magnification of 400×. The chambers are continuously gravity-influxed (2.5 ml/min) using a solution distributor accepting 8 inlets and whose sole outlet, consisting of a polyethylene tube (aperture 500 μm), is placed less than 3 mm from the cell under study. The “whole cell” configuration of the patch-clamp technique was used. […] The overall currents (membrane potential set at […]) are recorded with an Axopatch 1 D amplifier (Axon Instruments, Foster city, Calif.), connected to a PC running the Pclamp8 software (Axon Instrument). The current plots are recorded on paper and simultaneously digitized (sampling frequency 15 to 25 Hz) and acquired on the hard drive of the PC.
The application of a 300 nM capsaicin solution induces on the DRG cells (voltage set at −70 mV) an entering cationic current. […] The results are expressed as a percentage of inhibition of the control capsaicin response.

T1 sequence (Q704Y3 whole entry): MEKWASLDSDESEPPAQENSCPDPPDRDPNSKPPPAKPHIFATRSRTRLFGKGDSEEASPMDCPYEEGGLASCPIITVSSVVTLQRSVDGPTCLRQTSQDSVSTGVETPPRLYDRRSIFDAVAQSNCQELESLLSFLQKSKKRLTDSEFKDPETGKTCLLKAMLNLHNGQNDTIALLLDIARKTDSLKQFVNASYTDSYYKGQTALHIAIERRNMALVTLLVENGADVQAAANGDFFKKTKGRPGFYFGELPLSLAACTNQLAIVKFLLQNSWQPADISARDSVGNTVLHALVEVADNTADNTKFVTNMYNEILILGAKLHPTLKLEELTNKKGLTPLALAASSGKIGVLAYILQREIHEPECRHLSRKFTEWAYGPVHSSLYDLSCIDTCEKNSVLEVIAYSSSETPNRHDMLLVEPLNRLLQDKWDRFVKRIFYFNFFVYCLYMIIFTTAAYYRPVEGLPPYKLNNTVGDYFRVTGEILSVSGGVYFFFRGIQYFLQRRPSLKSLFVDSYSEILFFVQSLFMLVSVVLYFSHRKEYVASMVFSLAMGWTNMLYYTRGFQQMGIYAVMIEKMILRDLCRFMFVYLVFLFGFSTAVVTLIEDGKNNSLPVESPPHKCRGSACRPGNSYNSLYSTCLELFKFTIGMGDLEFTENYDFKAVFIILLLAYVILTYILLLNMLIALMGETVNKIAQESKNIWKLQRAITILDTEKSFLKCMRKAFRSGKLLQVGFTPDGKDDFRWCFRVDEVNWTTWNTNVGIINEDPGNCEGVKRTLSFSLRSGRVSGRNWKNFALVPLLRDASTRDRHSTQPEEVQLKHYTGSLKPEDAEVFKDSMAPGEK
T2 sequence (O35433 whole entry): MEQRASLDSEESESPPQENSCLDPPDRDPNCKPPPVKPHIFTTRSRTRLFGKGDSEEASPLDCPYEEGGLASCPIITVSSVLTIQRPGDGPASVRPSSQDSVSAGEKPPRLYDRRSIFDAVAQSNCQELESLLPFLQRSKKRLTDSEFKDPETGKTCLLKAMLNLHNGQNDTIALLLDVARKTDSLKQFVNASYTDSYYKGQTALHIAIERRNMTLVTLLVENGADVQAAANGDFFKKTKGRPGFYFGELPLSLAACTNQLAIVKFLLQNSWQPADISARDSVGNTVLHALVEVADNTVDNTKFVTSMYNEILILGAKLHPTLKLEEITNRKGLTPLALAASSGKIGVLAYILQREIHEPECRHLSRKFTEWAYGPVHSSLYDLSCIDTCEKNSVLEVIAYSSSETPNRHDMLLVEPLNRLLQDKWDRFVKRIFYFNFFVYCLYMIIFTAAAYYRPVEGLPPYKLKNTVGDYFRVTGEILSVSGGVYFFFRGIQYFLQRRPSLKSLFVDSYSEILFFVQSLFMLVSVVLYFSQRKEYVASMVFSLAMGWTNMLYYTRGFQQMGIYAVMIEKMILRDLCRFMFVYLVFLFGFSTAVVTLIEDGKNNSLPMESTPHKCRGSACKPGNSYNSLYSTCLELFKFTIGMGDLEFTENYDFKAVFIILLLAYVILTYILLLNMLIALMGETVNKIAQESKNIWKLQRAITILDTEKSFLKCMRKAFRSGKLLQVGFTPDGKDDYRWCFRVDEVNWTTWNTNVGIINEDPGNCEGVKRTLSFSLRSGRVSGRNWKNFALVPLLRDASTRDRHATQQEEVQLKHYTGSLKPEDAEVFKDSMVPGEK

inhibition at 0.01 µM (TRPV1 receptor; DRG neuron, compound 10 nM) | Structure (SMILES) | % P (percentage of protection) (TRPV1 receptors) | % inhibition in DRG patch (TRPV1 receptor; compound 1 nM)
– | O=C1CCc2ccc(NC(=O)c3cc4cc(F)ccc4n3Cc3cccc(F)c3)cc2N1 [Compound 20, N-(1H-2-oxo-3,4-dihydroquinol-7-yl)-5-fluoro-1-[(3-fluorophenyl)methyl]-1H-indole-2-carboxamide] | 26% - (1 h) | 45% (1 nM)
38% | O=C(Nc1ccc2c(c1)NCCC2)c1cc2cc(F)ccc2n1Cc1cccc(F)c1 [Compound 14, N-(1,2,3,4-tetrahydroquinol-7-yl)-5-fluoro-1-[(3-fluorophenyl)methyl]-1H-indole-2-carboxamide] | 46% - (1 h) | –
